Results published in US10760110B2, “Antibiotic testing and screening system” (priority 2017, dated 2020).
≈ marks a conversion by molar mass, not a printed value. Like-named read-outs stand apart in the source and are kept apart here.

Experiments:
Details in all cases: Klebsiella pneumoniae
[1] = test system: K. pneumoniae NVT1001 and its ΔompK35/36 and/or ΔramR mutants; experiment: Etest MIC, OmpK35/36 loss and AcrAB-TolC overexpression (ΔramR) strains (Table 6); type: cell-based, Klebsiella pneumoniae
Method in brief: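 First, Etest determined each antibiotic's MIC, and intermediate results were adjusted upward to the next doubling dilution. Next, ceftazidime and cefotaxime were titrated in broth according to CLSI recommendations. Finally, results were interpreted with CLSI 2017 breakpoints, substituting CLSI 2015 for cephalothin and EUCAST 2017 for moxifloxacin.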

[2] = test system: K. pneumoniae NVT1001 strains with carbapenemase plasmids; experiment: Etest MIC of β-lactams, OmpK35/36 loss, ΔramR and/or carbapenemase (Table 9); type: cell-based, Klebsiella pneumoniae
Method in brief: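 Cloned resistance genes in pACYC177 or pACYC184 were electroporated into K. pneumoniae NVT1001. MICs were determined by Etest and rounded up to the next two-fold value. Ceftazidime and cefotaxime against the blaOXA-48 construct were also tested by CLSI broth microdilution, with breakpoints from CLSI 2017 (cephalothin CLSI 2015, moxifloxacin EUCAST 2017).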

[3] = test system: K. pneumoniae NVT1001 ΔramRΔompK35/36 mutant and its revertants; experiment: Etest MIC, ΔramRΔompK35/36 mutant and its revertants (Table 7); type: cell-based

**Q.** With `CO/N=C(\C(=O)N[C@@H]1C(=O)N2C(C(=O)O)=C(COC(N)=O)CS[C@H]12)c1ccco1` [Cefuroxime] as the molecule, how does the MIC ([1]; WT, NVT1001, read-out: MIC) read?
**A.** 4 µg/mL (≈ 9.43 µM)

**Q.** And the MIC ([1]; Δ35, ΔompK35 mutant)?
**A.** 8 µg/mL (≈ 18.9 µM)

**Q.** And the MIC ([1]; Δ35/36, ΔompK35/36 mutant)?
**A.** 32 µg/mL (≈ 75.4 µM)

**Q.** And the MIC ([1]; Δ36, ΔompK36 mutant)?
**A.** 16 µg/mL (≈ 37.7 µM)

**Q.** And the MIC ([1]; ΔramR mutant)?
**A.** 32 µg/mL (≈ 75.4 µM)

**Q.** What about the MIC ([1]; ΔramRΔ35, ΔramRΔompK35 mutant) of the same molecule?
**A.** 64 µg/mL (≈ 151 µM)

**Q.** What about the MIC ([1]; ΔramRΔ35/36, ΔramRΔompK35/36 mutant) of the same molecule?
**A.** 128 µg/mL (≈ 302 µM)

**Q.** And the MIC ([1]; ΔramRΔ36, ΔramRΔompK36 mutant)?
**A.** > 256 µg/mL

**Q.** What about the MIC ([2]; IMP-8 on pACYC177, WT (NVT1001), read-out: MIC) of the same molecule?
**A.** > 256 µg/mL

**Q.** And the MIC ([2]; IMP-8 on pACYC177, Δ35 (ΔompK35 mutant))?
**A.** > 256 µg/mL

**Q.** And the MIC ([2]; IMP-8 on pACYC177, Δ35/36 (ΔompK35/36 mutant))?
**A.** > 256 µg/mL

**Q.** What about the MIC ([2]; IMP-8 on pACYC177, Δ36 (ΔompK36 mutant)) of the same molecule?
**A.** > 256 µg/mL

**Q.** What about the MIC ([2]; IMP-8 on pACYC177, ΔramR mutant) of the same molecule?
**A.** > 256 µg/mL

**Q.** What about the MIC ([2]; IMP-8 on pACYC177, ΔramRΔ35 (ΔramRΔompK35 mutant)) of the same molecule?
**A.** > 256 µg/mL

**Q.** And the MIC ([2]; IMP-8 on pACYC177, ΔramRΔ35/36 (ΔramRΔompK35/36 mutant))?
**A.** > 256 µg/mL

**Q.** And the MIC ([2]; IMP-8 on pACYC177, ΔramRΔ36 (ΔramRΔompK36 mutant))?
**A.** > 256 µg/mL

**Q.** And the MIC ([2]; KPC-2 on pACYC177, WT (NVT1001), read-out: MIC)?
**A.** > 256 µg/mL

**Q.** And the MIC ([2]; KPC-2 on pACYC177, Δ35 (ΔompK35 mutant))?
**A.** > 256 µg/mL

**Q.** What about the MIC ([2]; KPC-2 on pACYC177, Δ35/36 (ΔompK35/36 mutant)) of the same molecule?
**A.** > 256 µg/mL

**Q.** What about the MIC ([2]; KPC-2 on pACYC177, Δ36 (ΔompK36 mutant)) of the same molecule?
**A.** > 256 µg/mL

**Q.** What about the MIC ([2]; KPC-2 on pACYC177, ΔramR mutant) of the same molecule?
**A.** > 256 µg/mL

**Q.** What about the MIC ([2]; KPC-2 on pACYC177, ΔramRΔ35 (ΔramRΔompK35 mutant)) of the same molecule?
**A.** > 256 µg/mL

**Q.** What about the MIC ([2]; KPC-2 on pACYC177, ΔramRΔ35/36 (ΔramRΔompK35/36 mutant)) of the same molecule?
**A.** > 256 µg/mL

**Q.** What about the MIC ([2]; KPC-2 on pACYC177, ΔramRΔ36 (ΔramRΔompK36 mutant)) of the same molecule?
**A.** > 256 µg/mL

**Q.** What about the MIC ([2]; KPC-3 on pACYC177, WT (NVT1001), read-out: MIC) of the same molecule?
**A.** > 256 µg/mL

**Q.** And the MIC ([2]; KPC-3 on pACYC177, Δ35 (ΔompK35 mutant))?
**A.** > 256 µg/mL

**Q.** What about the MIC ([2]; KPC-3 on pACYC177, Δ35/36 (ΔompK35/36 mutant)) of the same molecule?
**A.** > 256 µg/mL

**Q.** What about the MIC ([2]; KPC-3 on pACYC177, Δ36 (ΔompK36 mutant)) of the same molecule?
**A.** > 256 µg/mL

**Q.** What about the MIC ([2]; KPC-3 on pACYC177, ΔramR mutant) of the same molecule?
**A.** > 256 µg/mL

**Q.** And the MIC ([2]; KPC-3 on pACYC177, ΔramRΔ35 (ΔramRΔompK35 mutant))?
**A.** > 256 µg/mL

**Q.** What about the MIC ([2]; KPC-3 on pACYC177, ΔramRΔ35/36 (ΔramRΔompK35/36 mutant)) of the same molecule?
**A.** > 256 µg/mL

**Q.** And the MIC ([2]; KPC-3 on pACYC177, ΔramRΔ36 (ΔramRΔompK36 mutant))?
**A.** > 256 µg/mL

**Q.** And the MIC ([2]; NDM-1 on pACYC177, WT (NVT1001), read-out: MIC)?
**A.** > 256 µg/mL

**Q.** What about the MIC ([2]; NDM-1 on pACYC177, Δ35 (ΔompK35 mutant)) of the same molecule?
**A.** > 256 µg/mL

**Q.** What about the MIC ([2]; NDM-1 on pACYC177, Δ35/36 (ΔompK35/36 mutant)) of the same molecule?
**A.** > 256 µg/mL

**Q.** And the MIC ([2]; NDM-1 on pACYC177, Δ36 (ΔompK36 mutant))?
**A.** > 256 µg/mL

**Q.** What about the MIC ([2]; NDM-1 on pACYC177, ΔramR mutant) of the same molecule?
**A.** > 256 µg/mL

**Q.** And the MIC ([2]; NDM-1 on pACYC177, ΔramRΔ35 (ΔramRΔompK35 mutant))?
**A.** > 256 µg/mL

**Q.** What about the MIC ([2]; NDM-1 on pACYC177, ΔramRΔ35/36 (ΔramRΔompK35/36 mutant)) of the same molecule?
**A.** > 256 µg/mL

**Q.** What about the MIC ([2]; NDM-1 on pACYC177, ΔramRΔ36 (ΔramRΔompK36 mutant)) of the same molecule?
**A.** > 256 µg/mL

**Q.** What about the MIC ([2]; OXA-48 on pACYC177, WT (NVT1001), read-out: MIC) of the same molecule?
**A.** 8 µg/mL

**Q.** And the MIC ([2]; OXA-48 on pACYC177, Δ35 (ΔompK35 mutant))?
**A.** 16 µg/mL

**Q.** And the MIC ([2]; OXA-48 on pACYC177, Δ35/36 (ΔompK35/36 mutant))?
**A.** 128 µg/mL

**Q.** What about the MIC ([2]; OXA-48 on pACYC177, Δ36 (ΔompK36 mutant)) of the same molecule?
**A.** 32 µg/mL

**Q.** What about the MIC ([2]; OXA-48 on pACYC177, ΔramR mutant) of the same molecule?
**A.** 64 µg/mL

**Q.** What about the MIC ([2]; OXA-48 on pACYC177, ΔramRΔ35 (ΔramRΔompK35 mutant)) of the same molecule?
**A.** 64 µg/mL

**Q.** What about the MIC ([2]; OXA-48 on pACYC177, ΔramRΔ35/36 (ΔramRΔompK35/36 mutant)) of the same molecule?
**A.** > 256 µg/mL

**Q.** What about the MIC ([2]; OXA-48 on pACYC177, ΔramRΔ36 (ΔramRΔompK36 mutant)) of the same molecule?
**A.** > 256 µg/mL

**Q.** What about the MIC ([2]; VIM-1 on pACYC177, WT (NVT1001), read-out: MIC) of the same molecule?
**A.** > 256 µg/mL

**Q.** What about the MIC ([2]; VIM-1 on pACYC177, Δ35 (ΔompK35 mutant)) of the same molecule?
**A.** > 256 µg/mL

**Q.** What about the MIC ([2]; VIM-1 on pACYC177, Δ35/36 (ΔompK35/36 mutant)) of the same molecule?
**A.** > 256 µg/mL

**Q.** And the MIC ([2]; VIM-1 on pACYC177, Δ36 (ΔompK36 mutant))?
**A.** > 256 µg/mL

**Q.** And the MIC ([2]; VIM-1 on pACYC177, ΔramR mutant)?
**A.** > 256 µg/mL

**Q.** What about the MIC ([2]; VIM-1 on pACYC177, ΔramRΔ35 (ΔramRΔompK35 mutant)) of the same molecule?
**A.** > 256 µg/mL

**Q.** What about the MIC ([2]; VIM-1 on pACYC177, ΔramRΔ35/36 (ΔramRΔompK35/36 mutant)) of the same molecule?
**A.** > 256 µg/mL

**Q.** What about the MIC ([2]; VIM-1 on pACYC177, ΔramRΔ36 (ΔramRΔompK36 mutant)) of the same molecule?
**A.** > 256 µg/mL

**Q.** And the MIC ([2]; no supplemental plasmid, WT (NVT1001), read-out: MIC)?
**A.** 4 µg/mL

**Q.** What about the MIC ([2]; no supplemental plasmid, Δ35 (ΔompK35 mutant)) of the same molecule?
**A.** 8 µg/mL

**Q.** And the MIC ([2]; no supplemental plasmid, Δ35/36 (ΔompK35/36 mutant))?
**A.** 32 µg/mL

**Q.** And the MIC ([2]; no supplemental plasmid, Δ36 (ΔompK36 mutant))?
**A.** 16 µg/mL

**Q.** And the MIC ([2]; no supplemental plasmid, ΔramR mutant)?
**A.** 32 µg/mL

**Q.** And the MIC ([2]; no supplemental plasmid, ΔramRΔ35 (ΔramRΔompK35 mutant))?
**A.** 64 µg/mL

**Q.** What about the MIC ([2]; no supplemental plasmid, ΔramRΔ35/36 (ΔramRΔompK35/36 mutant)) of the same molecule?
**A.** 128 µg/mL

**Q.** What about the MIC ([2]; no supplemental plasmid, ΔramRΔ36 (ΔramRΔompK36 mutant)) of the same molecule?
**A.** > 256 µg/mL

**Q.** And the MIC ([3]; ΔramRΔompK35/36::ompK35/36 revertant)?
**A.** 32 µg/mL

**Q.** And the MIC ([3]; ΔramRΔompK35/36::ompK35 revertant)?
**A.** > 256 µg/mL

**Q.** What about the MIC ([3]; ΔramRΔompK35/36::ompK36 revertant) of the same molecule?
**A.** 32 µg/mL

**Q.** What about the MIC ([3]; ΔramRΔompK35/36::ramR revertant) of the same molecule?
**A.** 32 µg/mL

**Q.** And the MIC ([3]; ΔramRΔompK35/36::ramR::ompK35/36 revertant)?
**A.** 4 µg/mL

**Q.** What about the MIC ([3]; ΔramRΔompK35/36::ramR::ompK35 revertant) of the same molecule?
**A.** 16 µg/mL

**Q.** And the MIC ([3]; ΔramRΔompK35/36::ramR::ompK36 revertant)?
**A.** 8 µg/mL

**Q.** And the MIC ([3]; ΔramRΔompK35/36 mutant)?
**A.** 128 µg/mL
